The source of these data is publication PMC8025302, “Structural and biophysical characterization of the tandem substrate-binding domains of the ABC importer GlnPQ” (Open Biology, 2021).

Values joined by “and” are separate entries in the source; they are usually repeats but may differ in a detail not shown here. Identical values can stand only once.

Test [1] relates to tandem SBD1-2 wild-type protein. Nature of the test: Differential scanning calorimetry, thermostability of tandem with ligand. Particulars: DSC; unliganded 59°C. In kind it is binding, Lactococcus lactis. The protocol:
Furthermore, we verified the stability of the proteins using differential scanning calorimetry (DSC) by analysing thermostability and potential differences in folding of wild-type SBD1-2 and linker mutants (figure 6b,c; electronic supplementary material, table S7). In the unliganded state, the melting temperature of both single SBDs was 59°C [41], which is the same for all tandem SBD1-2 mutants. The addition of either asparagine or glutamine increased the protein stability of the tandem resulting in a higher melting temperature of approximately 62°C for SBD1 and greater than or equal to 69°C for SBD2. […] We assign the peak shifts to a specific SBD by comparing the melting temperatures of the tandem SBD1-2 to that of the single SBDs. […] We find that linker deletions of 5 and 8 amino acids increase the stability of the proteins by 2–3°C. Maximal stabilization of SBD2 in SBD1-2 tandems is observed in the presence of glutamine, […] (figure 6c).
To determine the proteins thermal stability, DSC experiments were performed as described previously. Briefly, the purified SBDs were dialysed overnight against the DSC working buffer, i.e. 50 mM KPi (pH 7.0), 150 mM KCl, 1 mM EDTA and 1 mM NaN3. DSC experiments with working buffer solutions containing 4 µM of an SBD-mutant and 5 mM substrate were conducted on a VP-DSC Calorimeter (MicroCal, GE Healthcare, Buckinghamshire). The melting temperature Tm was determined by ORIGIN 8 (Origin Lab Corp, Northampton, MA).

In test [2] the target is SBD1 within the tandem SBD1-2 (Lactococcus lactis, UniProt Q9CES5). Nature of the test: Isothermal titration calorimetry, SBD1 site of tandem SBD1-2. The test is classed as binding. To be noted: SBD1 within tandem SBD1-2; ITC, 25°C, pH 6.0. The protocol:
(§1) ITC experiments were performed as described previously. Briefly, the purified SBDs were dialysed overnight against 50 mM KPi (pH 6.0), 1 mM EDTA and 1 mM NaN3. Isothermal titration experiments were carried out using an ITC-200 (MicroCal, GE Healthcare, Buckinghamshire, UK). For these experiments, the substrate was prepared in the dialysis buffer to minimize mixing effects. All experiments were carried out at 25°C and a mixing rate of 1000 r.p.m. The concentration of SBD1 and SBD2 and associated tandem mutants varied between 20 and 100 µM during the experiment, depending on the expected KD of the protein under investigation. For titration experiments with asparagine typically the concentration of ligand in the syringe was 8–10× the concentration in the cell. […] The recorded data was approximated by a one- respectively two-site binding model and fitted using the nonlinear curve-fitting tool provided by ORIGIN 8 (Origin Lab Corp., Northhampton, MA) to describe the molar enthalpy change ΔH for protein–ligand complex formation, the stoichiometry n and the corresponding association constant KA. […] The molar entropy change ΔS was calculated from ΔG = ΔH − TΔS. […] For analysing the glutamine binding to SBD1-Δ5-SBD2, which features two binding sites, we first determined the parameters for the single site using the conditions of asparagine binding to SBD1. […]
Background: ITC needs no label: the signal is the heat of the interaction.

The target in test [3] is SBD1 of GlnPQ (isolated domain). Also noted: method as in PMID 23994008. Particulars: ITC; cited from earlier work.
The target in test [4] is SBD2 within the tandem SBD1-2 (Lactococcus lactis, UniProt Q9CES5). Nature of the test: Isothermal titration calorimetry, SBD2 site of tandem SBD1-2. The test is classed as binding. Particulars: ITC. Here is the method: as §1
In test [5] the target is SBD2 of GlnPQ (isolated domain). Also noted: method as in PMID 23994008. To be noted: ITC; cited from earlier work.

What is called Kd is the constant that tells how readily two partners part at equilibrium.

Sequence of SBD1 within the tandem SBD1-2 (Q9CES5 entry or part of it): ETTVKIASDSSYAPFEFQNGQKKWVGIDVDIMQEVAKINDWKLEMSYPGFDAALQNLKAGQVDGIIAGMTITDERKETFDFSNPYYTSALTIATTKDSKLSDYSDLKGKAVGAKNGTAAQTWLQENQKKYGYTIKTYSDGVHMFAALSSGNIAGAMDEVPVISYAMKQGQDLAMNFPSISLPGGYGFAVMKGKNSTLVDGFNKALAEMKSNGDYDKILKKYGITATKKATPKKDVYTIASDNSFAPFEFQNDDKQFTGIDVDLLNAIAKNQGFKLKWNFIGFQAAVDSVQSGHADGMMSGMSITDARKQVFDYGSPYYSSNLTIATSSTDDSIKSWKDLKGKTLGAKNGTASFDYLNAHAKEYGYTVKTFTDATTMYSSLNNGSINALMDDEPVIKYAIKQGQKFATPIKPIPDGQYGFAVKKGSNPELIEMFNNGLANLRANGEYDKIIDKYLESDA
Sequence of SBD2 within the tandem SBD1-2 (Q9CES5 entry or part of it): as above

With `NC(=O)C[C@H](N)C(=O)O` [asparagine], in test [1], the “melting temperature of SBD1 in the tandem after addition of ligand” value is “approximately 62 °C” and the “melting temperature of SBD2 in the tandem after addition of ligand” value was “greater than or equal to 69 °C”. The compound further registered a Kd in test [2] of 0.4 ± 0.1 µM. Also, the Kd in test [3] is 0.2 µM.
For the compound `NC(=O)CC[C@H](N)C(=O)O` [glutamine], in test [1], the “melting temperature of SBD1 in the tandem after addition of ligand” value was “approximately 62 °C”. The “melting temperature of SBD2 in the tandem after addition of ligand” value in test [1] is “greater than or equal to 69 °C”. Further, the Kd in test [2] is 180 µM and ~100 µM; in test [4] (SBD2 within tandem SBD1-2, SBD1 blocked with 1 mM asparagine), 900 nM; in test [4] (SBD2 within tandem SBD1-2, no asparagine, 25°C, pH 6.0), 600 ± 200 nM; in test [3] it was 90 µM; in test [5], around 900 nM.
